US20030124727A1, “Multivalent cationic lipids and methods of using same in the production of lipid particles” (priority 2001, published 2003)

Tests used:
[1] = Preparation of vesicles / bilayer structures on dispersion in aqueous medium; assay type: physicochemical; conditions: for preparation of vesicles from cationic lipid/DOPE mixtures: equimolar mixture with DOPE, hydration of lipid film and extrusion; for formation of bilayer structures on dispersion in an aqueous medium: in the presence and absence of DOPE
Procedure: To prepare large unilamellar vesicles (LUV), mixtures of cationic lipids and DOPE in chloroform were dried under a stream of nitrogen gas and the residual solvent removed under high vacuum for 2 hours. The resulting lipid films were hydrated with distilled water. LUVs were obtained by extruding the lipid dispersions 10 times through two stacked 100-nm pore size polycarbonate filters (Costar Nuclepore polycarbonate membrane, Lipex Biomembranes extruder) (15). Phospholipid concentrations were determined by the inorganic phosphorus assays according to Fiske and Subbarow (16).
(§1) DNA plasmid complexes containing TODMAC3 and TODMAC6 are usually formed by mixing plasmid DNA with preformed vesicles containing the cationic lipid mixed with equimolar amounts of the- “helper” lipid- dioleoyfphosphatidylethanolamine (DOPE) (17, 1-8). […] FIG. 3 illustrates the transfection properties of complexes prepared at cationic lipid-to-DNA charge ratios (positive to negative) ranging from 0.5 to 5.

[2] = 31P NMR polymorphic phase properties of cationic lipid/DPPS mixtures (bilayer-to-non-bilayer transition); assay type: physicochemical; conditions: for temperature at which the mixture adopts the H∥ phase / non-bilayer structure: mixture with DPPS equimolar with respect to charge, hydrated in distilled water; for 31P NMR lineshape (phase structure) at 25° C.: mixture with DPPS
Excerpt: As noted above, the ability of cationic lipids to induce the hexagonal H∥ phase in combination with anionic lipids correlates well with their transfection properties in plasmid DNA-cationic lipid complexes. The relative ability of cationic lipids to induce the H∥ phase can be ascertained by measuring the bilayer-to-non-bilayer transition temperature (Tc) of the cationic lipid in equimolar mixtures (with respect to charge) with an anionic phospholipid such as 1,2-dipalmitoyl-sn-glycero-3-[phospho-L-serine] (DPPS). The bilayer-to-non-bilayer transition can be conveniently monitored employing ^31P NMR techniques (12).
To evaluate the polymorphic phase properties of mixtures of TODMAC3 and TODMAC6 with DPPS, lipid mixtures containing 40-50 mg DPPS and appropriate molar ratios of cationic lipids N,N-dioleyl-N-N-dimethylammonium chloride (DODAC), TODMAC3, and TODMAC6 were prepared by drying from chloroform solution, placed in 10 mm NMR tubes and hydrated with 1.5 mL distilled water. Free induction decays (FIDs) corresponding to 1000 scans were obtained by using a […] 60° pulse with a […] interpulse delay and a spectral width of 25,000 Hz. A gated two-level proton decoupling was used to ensure sufficient decoupling with minimum sample heating. An exponential multiplication corresponding to 50 Hz of line broadening was applied to the FIDs prior to Fourier transformation. The sample temperature (±1° C.) was regulated using a Bruker B-VT1000 variable temperature unit. Chemical shifts were referenced to 85% phosphoric acid as an external standard.

BHK cells = test: In vitro transfection of BHK cells with plasmid DNA-cationic lipid complexes (luciferase expression); assay type: cell-based, hamster; conditions: for transfection properties compared among DODAC, TODMAC6 and TODMAC3: complexes formed from ethanol solution, no DOPE, FIG. 4; for transfection potency relative to complexes containing DODAC: cationic lipid/DOPE vesicles, LO18 luciferase plasmid, FIG. 3
Procedure: Lipoplexes were prepared in distilled water at pDNA concentrations ranging from 12.5-25 μg pDNA/ml at positive-to-negative charge ratios between 0.5-5. Plasmid DNA was added under vortexing to cationic LUVs (cationic lipid/DOPE 1:1). In the absence of the helper lipid DOPE, lipoplexes were prepared by addition of the cationic lipids from ethanol solutions to an aqueous solution containing the pDNA. The amount of ethanol in these formulations was between 0.4-2.3%. The lipoplexes were incubated at room temperature for 30 min, diluted to a final concentration of 2.5 μg pDNA/ml with serum-free media (Dulbecco's Modified Eaglels Medium, DMEM) and subsequently applied to BHK cells.
BHK cells, grown in DMEM supplemented with 10% fetal calf serum (FCS), 100 U/ml of penicillin and 100 μg/ml of streptomycin, were seeded in 96-well plates at a density of 1×10^4 cells per well 24 h before transfection. The next day media was removed and replaced with 100 μl of lipoplexes dispersed in serum-free DMEM (0.25 μg pDNA/100 μl), After 4 hr, lipoplexes were replaced with serum-containing DMEM and cells further incubated for 20 h. After that, the culture medium was aspirated, the cells washed twice with 100 μl of PSS and then lysed through addition of 50 μl of lysis buffer (1% Triton X-100 in PBS). Luciferase activity was measured with a Dynex Luminometer (Dynex model ML3000) using the Luciferase Assay Kit from Promega. The total protein concentration per well was determined using the BCA assay from Pierce. Means and standard deviations were calculated from three independent experiments.
as §1
In order to test the relative transfection potencies of DODAC, TODMAC6 and TODMAC3 a different procedure was used to associate the cationic lipid with the plasmid to form the complexes. In this method the cationic lipid dissolved in ethanol was introduced into an aqueous solution of the plasmid and DOPE was not present. […] Specifically, for charge ratios −2.5, TODMAC6 complexes gave rise to luciferase expression levels 5-20 fold higher than could be achieved with DODAC or TODMAC3.

SMILES | preparation of vesicles from cationic lipid/DOPE mixtures [1] | formation of bilayer structures on dispersion in an aqueous medium [1] | temperature at which an H∥ component is visible (limited subset of the DPPS; bulk remains bilayer) ([2]; TODMAC3/DPPS 0.5:1 mol:mol (equimolar in charge), 31P NMR) [°C] | temperature of apparently complete H∥ organization ([2]; TODMAC3/DPPS ratio 2:1 on a charge basis) [°C] | phase properties of equimolar mixture with DPPS ([2]; equimolar (mol) proportions of TODMAC3 and DPPS, compared with 0.5:1) | temperature at which the mixture adopts the H∥ phase / non-bilayer structure ([2]; 31P NMR) [°C] | 31P NMR lineshape (phase structure) at 25° C. [2] | transfection properties compared among DODAC, TODMAC6 and TODMAC3 (BHK cells; charge ratios of two and lower) | transfection potency relative to complexes containing DODAC (BHK cells; charge ratios higher than two (up to 5)) | transfection potency relative to complexes containing DODAC (BHK cells; charge ratios of two or lower) | transfection properties compared among DODAC, TODMAC6 and TODMAC3 (BHK cells; charge ratios above two) | luciferase expression levels higher than could be achieved with DODAC or TODMAC3 (BHK cells; complexes without DOPE, charge ratios −2.5)
CCCCCCCC/C=C\CCCCCCCC[N+](C)(CCCCCCCC/C=C\CCCCCCCC)CCC[N+](C)(CCCCCCCC/C=C\CCCCCCCC)CCCCCCCC/C=C\CCCCCCCC.[Cl-].[Cl-] [TODMAC3, N,N,N1,N1-Tetraoleyl.N,N′-dimethyl-1,3-propanediammonium Chloride] | could not be prepared | does not | ≤ 15 | ≥ 25 | increased preference for H∥ phase structure |  |  |  |  |  |  | 
CCCCCCCC/C=C\CCCCCCCC[N+](C)(C)CCCCCCCC/C=C\CCCCCCCC.[Cl-] [DODAC, N,N-dioleyl-N-N-dimethylammonium chloride, reference compound] |  |  |  |  |  | > 35 | bilayer structure | superior |  |  |  | 
CCCCCCCC/C=C\CCCCCCCC[N+](C)(CCCCCCCC/C=C\CCCCCCCC)CCCCCC[N+](C)(CCCCCCCC/C=C\CCCCCCCC)CCCCCCCC/C=C\CCCCCCCC.[Cl-].[Cl-] [TODMAC6, N,N,N′,N′-Tetraoleyl-N,N′-dimethyl-1,6-hexanediammonium chloride] | could be readily prepared | readily forms bilayer structures |  |  |  | ~30 | bilayer structure |  | greater | comparable to or slightly lower | superior to both DODAC and TODMAC3 | 5-20 fold
